In brackets after ≈: the same amount, converted by molar mass.
Experiments:
[1] = Inhibition of recombinant mouse GALK1 using ATP as substrate incubated for 1 hr and measured by Kinase-Glo assay
[2] = Stability of compound in rat microsomes assessed as half-life; type: ADME, Microsome
[3] = Kinetic aqueous solubility of the compound; type: physicochemical; conditions: buffer; read-out: Kinetic_solubility

Structure (SMILES) | IC50 ([1]; read-out: IC50) [µM] | half-life [2] [min] | solubility kinetic [3] [µg/mL] | IC50 [1]
CC1=C(C(=O)Nc2cc(C(=O)O)ccn2)C(c2ccccc2Cl)N=C(Nc2nc3cccc([N+](=O)[O-])c3o2)N1 (centres undefined) | 38.5 | > 30 | 7.3 (≈ 13.3 µM) | 
COc1ccc(C(=O)O)cc1NC(=O)C1=C(C)NC(Nc2nc3ccc(F)cc3o2)=NC1c1ccccc1Cl (centres undefined) | 12.2 | > 30 | 53.3 (≈ 96.9 µM) | 
COC(=O)c1ccccc1CNC(=O)C1=C(C)NC(Nc2nc3ccccc3o2)=NC1c1ccccc1Cl (centres undefined) | 4.32 | 1.74 | < 1 | 
COC(=O)c1ccc(NC(=O)C2=C(C)NC(Nc3nc4ccccc4o3)=NC2c2ccccc2Cl)cc1 (centres undefined) | 9.68 | 17.7 | < 1 | 
CCn1cc(CNC(=O)C2=C(C)NC(Nc3nc4cccc(N)c4o3)=NC2c2ccc(Cl)cc2Cl)cn1 (centres undefined) | 8.63 | 14.1 | 4.6 (≈ 8.53 µM) | 
CNC(=O)c1ccnc(NC(=O)C2=C(C)NC(Nc3nc4ccccc4o3)=NC2c2ccccc2Cl)c1 (centres undefined) | 10.9 | > 30 | < 1 | 
CC1=C(C(=O)NCc2cnn(C)c2)C(c2ccc(Cl)cc2Cl)N=C(Nc2nc3ccc(F)c(N)c3o2)N1 (centres undefined) | 1.93 | > 30 | 5.9 (≈ 10.9 µM) | 
CC1=C(C(=O)NCc2cn(C)cn2)[C@H](c2ccccc2Cl)N=C(Nc2nc3ccccc3o2)N1 | 4.32 | 5.62 | 46.1 (≈ 96.9 µM) | 
CC1=C(C(=O)NCc2ccc(F)cc2)C(c2ccccc2Cl)N=C(Nc2nc3ccccc3o2)N1 (centres undefined) |  | 11.3 | < 1 | Not Active
CC1=C(C(=O)Nc2nncs2)C(c2n[nH]cc2Br)N=C(Nc2nc3ccccc3o2)N1 (centres undefined) | 19.3 | > 30 | 11.4 (≈ 22.8 µM) | 
COC(=O)Cc1ccc(NC(=O)C2=C(C)NC(Nc3nc4ccccc4o3)=NC2c2ccccc2Cl)cc1 (centres undefined) | 12.2 | 7.46 | < 1 | 
CC1=C(C(=O)Nc2ccccn2)C(c2ccccc2Cl)N=C(Nc2nc3cccc(N)c3o2)N1 (centres undefined) | 19.3 | > 30 | < 1 | 
CC1=C(C(=O)Nc2ncc(CO)s2)C(c2ccccc2Cl)N=C(Nc2nc3ccccc3o2)N1 (centres undefined) | 19.3 | > 30 | < 1 | 
CCn1cc(CNC(=O)C2=C(C)NC(Nc3nc4cccc(N)c4o3)=NC2c2ccc(C)cc2Cl)cn1 (centres undefined) | 3.06 | 11.3 | 2.43 (≈ 4.68 µM) | 
CC1=C(C(=O)NCc2c(C)nn(C)c2C)C(c2ccc(C)cc2Cl)N=C(Nc2nc3cccc(N)c3o2)N1 (centres undefined) | 6.85 | 2.37 | 12 (≈ 22.5 µM) | 
CC1=C(C(=O)NCc2cnn(C)c2)[C@@H](c2ccc(C)cc2Cl)N=C(Nc2nc3cccc(N)c3o2)N1 | 30.6 | 7.87 | 21.9 (≈ 43.4 µM) | 
CCn1cc(CNC(=O)C2=C(C)NC(Nc3nc4ccc(F)c(N)c4o3)=N[C@@H]2c2ccc(C)cc2Cl)cn1 | 10.9 | 8.62 | < 1 | 
CC1=C(C(=O)Nc2cc(C(=O)O)ccc2Cl)C(c2ccccc2Cl)N=C(Nc2nc3ccc(F)cc3o2)N1 (centres undefined) | 19.3 | > 30 | 54 (≈ 97.4 µM) | 
CC1=C(C(=O)NCc2cnn(CC(F)(F)F)c2)C(c2ccc(C)cc2Cl)N=C(Nc2nc3ccc(F)c(N)c3o2)N1 (centres undefined) | 3.06 | 18.7 | 1.56 (≈ 2.64 µM) | 
CCn1cc(CNC(=O)C2=C(C)NC(Nc3nc4ccc(F)c(N)c4o3)=NC2c2ccccc2Cl)cn1 (centres undefined) | 2.17 | 17.7 | 23.9 (≈ 45.6 µM) | 

Structure (SMILES) | IC50 ([1]; read-out: IC50) [µM] | half-life [2] [min] | solubility kinetic [3] [µg/mL] | IC50 [1]
CCn1cc(CNC(=O)C2=C(C)NC(Nc3nc4ccc(F)c(N)c4o3)=NC2c2ccc(Cl)cc2Cl)cn1 (centres undefined) | 1.93 | 6.79 | < 1 | 
CC1=C(C(=O)Nc2ccccc2O)C(c2ccccc2Cl)N=C(Nc2nc3ccccc3o2)N1 (centres undefined) | 17.2 | 17.9 | < 1 | 
CC1=C(C(=O)NCc2cnn(C)c2)C(c2ccccc2Cl)N=C(Nc2nc3cccc(N)c3o2)N1 (centres undefined) | 3.43 | > 30 | > 72 | 
CC1=C(C(=O)Nc2ccc(Cl)cn2)C(c2ccccc2Cl)N=C(Nc2nc3ccccc3o2)N1 (centres undefined) |  | 30.8 | < 1 | Not Active
CC1=C(C(=O)Nc2nnc(C(F)(F)F)s2)C(c2ccccc2Cl)N=C(Nc2nc3ccccc3o2)N1 (centres undefined) | 21.7 | > 30 | < 1 | 
CC1=C(C(=O)NCc2ccc(CO)cc2)C(c2ccccc2Cl)N=C(Nc2nc3ccccc3o2)N1 (centres undefined) | 15.3 | 13.8 | < 1 | 
CC1=C(C(=O)NCc2cnn(C)c2)[C@H](c2ccc(C)cc2Cl)N=C(Nc2nc3cccc(N)c3o2)N1 | 1.58 | 18.9 | 17.1 (≈ 33.9 µM) | 
CC1=C(C(=O)Nc2cc(C(=O)O)ccn2)C(c2ccccc2Cl)N=C(Nc2nc3ccccc3o2)N1C (centres undefined) | 34.4 | > 30 | > 76 | 
CC1=C(C(=O)Nc2cc(C(N)=O)ccn2)C(c2ccccc2Cl)N=C(Nc2nc3ccc(F)cc3o2)N1 (centres undefined) | 19.3 | > 30 | 2.4 (≈ 4.62 µM) | 
CC1=C(C(=O)Nc2nncs2)C(c2cccnc2Br)N=C(Nc2nc3ccccc3o2)N1 (centres undefined) | 19.3 | > 30 | 11.1 (≈ 21.7 µM) | 
COC(=O)c1cccc(CNC(=O)C2=C(C)NC(Nc3nc4ccccc4o3)=NC2c2ccccc2Cl)c1 (centres undefined) | 7.69 | 3.42 | < 1 | 
CC1=C(C(=O)NCc2cnn(C)c2)C(c2ccc(Cl)cc2Cl)N=C(Nc2nc3cccc(N)c3o2)N1 (centres undefined) | 6.85 | 17.8 | 15.6 (≈ 29.7 µM) | 
O=C1NCCC2=C1C(c1ccccc1Cl)N=C(Nc1nc3ccccc3o1)N2 (centres undefined) | 21.7 | 27.1 | < 1 | 
CC1=C(C(=O)NCc2cnn(C)c2)C(c2ccc(C)cc2Cl)N=C(Nc2nc3cnccc3o2)N1 (centres undefined) | 12.2 | 5.12 | > 49 | 
CC1=C(C(=O)Nc2cc(N(C)C)ccn2)C(c2ccc(C)cc2Cl)N=C(Nc2nc3ccc(F)cc3o2)N1 (centres undefined) | 6.85 | 17.6 | 6.2 (≈ 11.6 µM) | 
CC1=C(C(=O)NCc2cnn(C)c2)C(c2ccc(C)cc2Cl)N=C(Nc2nc3ncccc3o2)N1 (centres undefined) |  | 6.15 | > 49 | Not Active
COc1ccccc1CNC(=O)C1=C(C)NC(Nc2nc3ccccc3o2)=NC1c1ccccc1Cl (centres undefined) | 12.2 | 1.4 | < 1 | 
CCn1ncc(CNC(=O)C2=C(C)NC(Nc3nc4ccc(F)c(N)c4o3)=NC2c2ccc(C)cc2Cl)c1F (centres undefined) | 1.09 | 7.04 | < 1 | 
COC(=O)c1csc(NC(=O)C2=C(C)NC(Nc3nc4ccccc4o3)=NC2c2ccccc2Cl)n1 (centres undefined) | 13.7 | > 30 | < 1 | 
CC1=C(C(=O)Nc2ccc(CN3CCOCC3)cc2)C(c2ccccc2Cl)N=C(Nc2nc3ccccc3o2)N1 (centres undefined) | 9.68 | 22.3 | < 1 | 

Structure (SMILES) | IC50 ([1]; read-out: IC50) [µM] | half-life [2] [min] | solubility kinetic [3] [µg/mL] | IC50 [1]
CC1=C(S(C)(=O)=O)C(c2ccccc2Cl)N=C(Nc2nc3ccccc3o2)N1 (centres undefined) | 19.3 | 9.37 | < 1 | 
CC1=C(C(=O)Nc2nncs2)C2(CCOC2)N=C(Nc2nc3ccccc3o2)N1 (centres undefined) |  | > 30 | 37.9 (≈ 92.1 µM) | Not Active
CC1=C(C(=O)NCc2c(C)nn(C)c2C)C(c2ccc(C)cc2Cl)N=C(Nc2nc3ccc(F)cc3o2)N1 (centres undefined) | 4.85 | 2.66 | < 1 | 
CC1=C(C(=O)Nc2nncs2)C(c2ccncc2Br)N=C(Nc2nc3ccccc3o2)N1 (centres undefined) | 19.3 | > 30 | 6.5 (≈ 12.7 µM) | 
CC(C)CC1=C(C(=O)Nc2nncs2)C(c2ccccc2Cl)N=C(Nc2nc3ccccc3o2)N1 (centres undefined) | 17.2 | > 30 | < 1 | 
CC1=C(C(=O)Nc2nncs2)C2(CCSCC2)N=C(Nc2nc3ccccc3o2)N1 | 24.3 | > 30 | 3.5 (≈ 7.93 µM) | 
CC1=C(C(=O)Nc2cc(C(N)=O)ccn2)C(c2ccccc2Cl)N=C(Nc2nc3ccccc3o2)N1 (centres undefined) | 7.69 | > 30 | < 1 | 
CC1=C(C(=O)NCc2cnn(C)c2)C(c2ccccc2Cl)N=C(Nc2nc3ccc(F)cc3o2)N1 (centres undefined) | 12.2 | 26 | 13.7 (≈ 27.7 µM) | 
CC1=C(C(=O)Nc2nncs2)C(c2n[nH]cc2Cl)N=C(Nc2nc3ccccc3o2)N1 (centres undefined) | 54.4 | > 30 | 34.6 (≈ 75.9 µM) | 
CC1=C(C(=O)Nc2ccc(CN)cc2)C(c2ccccc2Cl)N=C(Nc2nc3ccccc3o2)N1 (centres undefined) | 4.32 | 72.5 | 10 (≈ 20.5 µM) | 
CC1=C(C(=O)Nc2nc(CO)cs2)C(c2ccccc2Cl)N=C(Nc2nc3ccccc3o2)N1 (centres undefined) | 19.3 | > 30 | < 1 | 
CC1=C(C(=O)Nc2nncs2)C(c2ccccc2C(F)(F)F)N=C(Nc2nc3ccccc3o2)N1 (centres undefined) | 12.2 | > 30 | < 1 | 
CC1=C(C(=O)Nc2cc(C(=O)O)ccn2)C(c2ccc(N3CCCCC3)cc2Cl)N=C(Nc2nc3ccc(F)cc3o2)N1 (centres undefined) | 12.2 | > 30 | 1.92 (≈ 3.18 µM) | 
CC1=C(C(=O)Nc2cc(C(=O)O)ccn2)C(c2ccc(N3CCOCC3)cc2Cl)N=C(Nc2nc3ccc(F)cc3o2)N1 (centres undefined) | 3.85 | > 30 | > 89 | 
CC1=C(C(=O)Nc2ccccc2Cl)C(c2ccccc2Cl)N=C(Nc2nc3ccccc3o2)N1 (centres undefined) |  | 28.7 | < 1 | Not Active
CC1=C(C(=O)NCc2cnn(C)c2)C(c2ccc(C)cc2Cl)N=C(Nc2nc3cccnc3o2)N1 (centres undefined) |  | 3.66 | 4.8 (≈ 9.78 µM) | Not Active
CC(C)C1=C(C(=O)Nc2nncs2)C(c2ccccc2Cl)N=C(Nc2nc3ccccc3o2)N1 (centres undefined) | 15.3 | > 30 | < 1 | 
CC1=C(C(=O)Nc2nncs2)C(c2ncccc2Cl)N=C(Nc2nc3ccccc3o2)N1 (centres undefined) | 19.3 | > 30 | 10.6 (≈ 22.7 µM) | 

Reference: ChEMBL document CHEMBL5050861 (2021)
